Consider two compounds from patent US20040138285A1, “Chondrogenesis promoters” (priority 2001, published 2004).

Test [1] relates to rat articular chondrocytes. In words: Cartilage matrix production promoting effect of compound A and PD98059 (alcian blue staining), Example 2. Type of test: cell-based. Particulars: one week; for ratio of alcian blue positive cells (photomicrograph after alcian blue staining): compound A 2×10^−6 mol/L or PD98059 5×10^−5 mol/L alone, vs vehicle control (FIG. 7); for production of the cartilage matrix (alcian blue staining intensity, absorption at 595 nm): each agent alone (compound A 2×10^−6 mol/L; PD98059 5×10^−5 mol/L), vs vehicle control, p<0.05 (FIG. 8). As to the method:
A 5-week-old male SD rat (Charles River Japan Corp.) was euthanized, and thereafter the femur was removed therefrom, and the articular cartilage layer was stripped off from the knee joint surface of the femur with a scalpel. The articular cartilage obtained was treated with 0.15% trypsin (DIFCO Lab.)/0.05% EDTA (Nacalai Tesque, Inc.) at 37° C. for one hour, and thereafter the matrix was decomposed while being agitated at 37° C. in 0.15% collagenase (WORTHINGTON Corp.) for three hours, thereby obtaining a cell suspension. The cartilage cells obtained were seeded at the cell density of 20000 per well in a 24-well culturing plate (Falcon Corp.) coated with type I collagen (Nitta Gelatin Inc.) and were cultured in a Dulbecco's modified Eagle medium (Gibco) containing 10% fetal bovine serum (REHATUIN) and antibiotic-antimycotic (Gibco) (Calcif. Tissue Int. 19: 179-187, 1975). After achievement of the confluent state of cells, 50 μg/mL ascorbic acid (Wako Pure Chemical Industries) was added to the medium, and either or both of 2×10^−6 mol/L compound A and 2×10^−6 to 5×10^−5 mol/L compound with MEK1 inhibitory activity PD98059 (New England Biolab) were further added thereto, followed by culture for one week. 0.12% DMSO (JUNSEI CHEMICAL CO., LTD) was used as a solvent vehicle control. The medium was replaced every two to three days and the above agents were added every replacement.
After completion of the culture, the cell layer was fixed at room temperature in 4% paraformaldehyde solution (Wako Pure Chemical Industries) for two hours and then washed with distilled water and 5% acetic acid of pH 1.0, and thereafter the cartilage matrix was stained at room temperature with alcian blue of pH 1.0 (Wako Pure Chemical Industries) for two hours. The cell layer was washed with 5% acetic acid and distilled water and then dried, 6 mol/L guanidine hydrochloride (Nacalai Tesque, Inc.) was added to the cell layer to extract the dye therefrom, and absorption was measured at 595 nm with the Microplate reader (BioRad).

In test [2] the test system is rat articular chondrocytes. In words: Cartilage matrix production promoting effect of compound A and U0126 (alcian blue staining, phase contrast morphology), Example 1. Format: cell-based.
Experimental: A 5-week-old male SD rat (Charles River Japan Corp.) was euthanized, and thereafter the femur was removed therefrom, and the articular cartilage layer was stripped off from the knee joint surface of the femur with a scalpel. The articular cartilage obtained was treated with 0.15% trypsin (DIFCO Lab.)/0.05% EDTA (KANTO KAGAKU CORP.) at 37° C. for one hour, and thereafter the matrix was decomposed while being agitated at 37° C. in 0.15% collagenase (WORTHINGTON Corp.) for three hours, thereby obtaining a cell suspension. […] 0.12% DMSO (Wako Pure Chemical Industries) was used as a solvent vehicle control. The medium was replaced every two to three days and the above agents were added every replacement.
After completion of the culture, the cell layer was fixed at room temperature in 4% paraformaldehyde solution (Wako Pure Chemical Industries) for two hours and then washed with distilled water and 5% acetic acid of pH 1.0, and thereafter the cartilage matrix was stained at room temperature with alcian blue of pH 1.0 (Wako Pure Chemical Industries) for two hours. The cell layer was washed with 5% acetic acid and distilled water and then dried, 6 mol/L guanidine hydrochloride (Nacalai Tesque, Inc.) was added to the cell layer to extract the dye therefrom, and the absorption was measured at 630 nm with a Microplate reader (BioRad).

For the compound `COc1cccc(-c2cc(=O)c3ccccc3o2)c1N` [PD98059, reference compound], in test [1], the “ratio of alcian blue positive cells (photomicrograph after alcian blue staining)” value is “the ratio of alcian blue positive cells increased” and the “production of the cartilage matrix (alcian blue staining intensity, absorption at 595 nm)” value is “significantly promoted the production of the cartilage matrix”.
On to `CCOC(CN1C(=O)[C@](CC(=O)Nc2ccc(C)cc2)(NC(=O)Nc2ccc(C)cc2)c2ccccc21)OCC` [compound A], for which, in test [2] (compound A 2×10^−6 mol/L alone, cultured one week, vs vehicle control 0.12% DMSO (FIG. 2)), the “production of the matrix and morphology of chondrocytes (phase contrast photomicrograph)” value is “production of the matrix was enhanced”. The “production of the cartilage matrix (alcian blue staining intensity, absorption at 630 nm)” value in test [2] (each agent alone (compound A 5×10^−7 to 2×10^−6 mol/L; U0126 1×10^−7 to 1×10^−5 mol/L), one week, vs vehicle control, p<0.05 (FIGS. 5 and 6)) is recorded as “significantly promoted the production of the cartilage matrix”. In test [1], the “ratio of alcian blue positive cells (photomicrograph after alcian blue staining)” value is listed as “the ratio of alcian blue positive cells increased” and the “production of the cartilage matrix (alcian blue staining intensity, absorption at 595 nm)” value is “significantly promoted the production of the cartilage matrix”.
